Values quoted from earlier work as cited in publication PMC10928227, “Assessing biologic/toxicologic effects of extractables from plastic contact materials for advanced therapy manufacturing using cell painting assay and cytotoxicity screening” (Scientific Reports, 2024).
Read-outs that look alike come from different tables or passages of the source.

Conditions: cited from earlier work; for Risk based on in vitro genotoxicity data from database (from QSAR-toolbox): not checked for in vivo relevance, ref QSAR Toolbox 4.5 database
[1] = in Vitro, Chinese hamster, Chinese Hamster Lung (CHL), Duration 24÷48 h, Database Genotoxicity OASIS, ref Sofuni, T., Ed. (1998). Data Book of Chromosomal Aberration Test In Vitro, Revised Edition
[2] = Salmonella typhimurium, Strain TA 97, in Vitro, Database: Bacterial mutagenicity ISSSTY, ref CCRIS database,Toxnet databases (Romualdo Benigni)
[3] = Salmonella typhimurium, Strain TA 98, in Vitro, Database: Bacterial mutagenicity ISSSTY, ref CCRIS database,Toxnet databases (Romualdo Benigni)
[4] = Salmonella typhimurium, Strain TA 100, in Vitro, Database: Bacterial mutagenicity ISSSTY, ref CCRIS database,Toxnet databases (Romualdo Benigni)
[5] = Salmonella typhimurium, Strain TA 102, in Vitro, Database: Bacterial mutagenicity ISSSTY, ref CCRIS database,Toxnet databases (Romualdo Benigni)
[6] = Salmonella typhimurium, Strain TA 1535, in Vitro, Database: Bacterial mutagenicity ISSSTY, ref CCRIS database,Toxnet databases (Romualdo Benigni)
[7] = Salmonella typhimurium, Strain TA 1537, in Vitro, Database: Bacterial mutagenicity ISSSTY, ref CCRIS database,Toxnet databases (Romualdo Benigni)
[8] = in Vitro, Salmonella typhimurium, No Strain Information, Database Genotoxicity OASIS, ref Journal of Medicinal Chemistry 48 (1), pp. 312-32, 25, Kazius J, McGuire R., Bursi R
[9] = in Vitro, Salmonella typhimurium, Strain TA 97, Database Genotoxicity OASIS, ref P&G
[10] = in Vitro, Salmonella typhimurium, Strain TA 98, Database Genotoxicity OASIS, ref P&G
[11] = in Vitro, Salmonella typhimurium, Strain TA 100, Database Genotoxicity OASIS, ref P&G
[12] = in Vitro, Salmonella typhimurium, Strain TA 1535, Database Genotoxicity OASIS, ref P&G
[13] = in Vitro, Salmonella typhimurium, Strain TA 1537, Database Genotoxicity OASIS, ref P&G
[14] = in Vitro, Salmonella typhimurium, Strain TA 1538, Database Genotoxicity OASIS, ref P&G
[15] = in Vitro, Salmonella typhimurium, Strain TA 98, Database Bacterial mutagenicity ISSSTY, ref CCRIS database,Toxnet databases, Romualdo Benigni, 02.5.2011
[16] = in Vitro, Salmonella typhimurium, Strain TA 1535, Database Bacterial mutagenicity ISSSTY, ref CCRIS database,Toxnet databases, Romualdo Benigni, 02.5.2011
[17] = in Vitro, Salmonella typhimurium, Strain TA 1537, Database Bacterial mutagenicity ISSSTY, ref CCRIS database,Toxnet databases, Romualdo Benigni, 02.5.2011
[18] = in Vitro, Salmonella typhimurium, Strain TA 97, Database Bacterial mutagenicity ISSSTY, ref CCRIS database,Toxnet databases, Romualdo Benigni, 02.5.2011

CC(C)(C)c1ccc(O)c(C(C)(C)C)c1 [2,4-Di-tert-butylphenol]
Risk based on in vitro genotoxicity data from database (from QSAR-toolbox): Positive in vitro data

Sc1nc2ccccc2s1 [2-Mercaptobenzothiazole]
Risk based on in vitro genotoxicity data from database (from QSAR-toolbox): Positive in vitro data

OCC(O)CO [56-81-5]
Chromosome aberration, in Vitro Mammalian Chromosome Aberration Test (in Vitro, Chinese hamster, Chinese Hamster Lung (CHL), Database Genotoxicity OASIS, ref ECHA, Registration dossier): Negative | Chromosome aberration, in Vitro Mammalian Chromosome Aberration Test [1]: Negative

Cc1ccc(S(N)(=O)=O)cc1 [70-55-3]
Gene mutation, Bacterial Reverse Mutation Assay (e.g. Ames Test) (Salmonella typhimurium, No Strain Information, in Vitro, Database: Genotoxicity OASIS, ref NIHS Japan): Negative | Gene mutation, Bacterial Reverse Mutation Assay (e.g. Ames Test) (Salmonella typhimurium, Strain TA 98, in Vitro, Database: Genotoxicity OASIS, ref https://doi.org/10.22427/NTP-DATA-022-00002-0001-000-7, National Institute of Environmental Health Sciences): Negative | Gene mutation, Bacterial Reverse Mutation Assay (e.g. Ames Test) (Salmonella typhimurium, Strain TA 100, in Vitro, Database: Genotoxicity OASIS, ref https://doi.org/10.22427/NTP-DATA-022-00002-0001-000-7, National Institute of Environmental Health Sciences): Negative | Gene mutation, Bacterial Reverse Mutation Assay (e.g. Ames Test) (Salmonella typhimurium, Strain TA 102, in Vitro, Database: Genotoxicity OASIS, ref https://doi.org/10.22427/NTP-DATA-022-00002-0001-000-7, National Institute of Environmental Health Sciences): Negative | Gene mutation, Bacterial Reverse Mutation Assay (e.g. Ames Test) (Salmonella typhimurium, Strain TA 1535, in Vitro, OECD Guideline 471, Database: Genotoxicity OASIS, ref Japan Existing Chemical Data Base): Negative | Chromosome aberration, in Vitro Mammalian Chromosome Aberration Test (in Vitro, Chinese hamster, Chinese Hamster Lung Cells, Guidelines For Screening Mutagenicity Testing of Chemicals (Chemical Substances Control Law of Japan), Database Toxicity Japan MHLW, ref Japan Ministry of Health Labour and Welfare, http://dra4.nihs.go.jp/mhlw_data/jsp/SearchPageENG.jsp): Negative | Gene mutation, Bacterial Reverse Mutation Assay (e.g. Ames Test) (in Vitro, E. coli WP2 uvrA, Database Genotoxicity OASIS, ref ECHA, Registration dossier): Negative | Gene mutation, Bacterial Reverse Mutation Assay (e.g. Ames Test) (in Vitro, Escherichia coli, Strain WP2 UvrA, Guidelines For Screening Mutagenicity Testing of Chemicals (Chemical Substances Control Law of Japan), Database Toxicity Japan MHLW, ref Japan Existing Chemical Data Base, http://dra4.nihs.go.jp/mhlw_data/jsp/SearchPageENG.jsp): Negative | Chromosome aberration, in Vitro Mammalian Chromosome Aberration Test (in Vitro, No Strain Information, Database Genotoxicity OASIS, ref NIHS Japan): Negative | Gene mutation, Bacterial Reverse Mutation Assay (e.g. Ames Test) (in Vitro, Salmonella typhimurium, Strain TA 97, Guidelines For Screening Mutagenicity Testing of Chemicals (Chemical Substances Control Law of Japan), Database Toxicity Japan MHLW, ref Japan Existing Chemical Data Base, http://dra4.nihs.go.jp/mhlw_data/jsp/SearchPageENG.jsp): Negative | Gene mutation, Bacterial Reverse Mutation Assay (e.g. Ames Test) (in Vitro, Salmonella typhimurium, Strain TA 100, Guidelines For Screening Mutagenicity Testing of Chemicals (Chemical Substances Control Law of Japan), Database Toxicity Japan MHLW, ref Japan Existing Chemical Data Base, http://dra4.nihs.go.jp/mhlw_data/jsp/SearchPageENG.jsp): Negative | Gene mutation, Bacterial Reverse Mutation Assay (e.g. Ames Test) (in Vitro, Salmonella typhimurium, Strain TA 1535, Guidelines For Screening Mutagenicity Testing of Chemicals (Chemical Substances Control Law of Japan), Database Toxicity Japan MHLW, ref Japan Existing Chemical Data Base, http://dra4.nihs.go.jp/mhlw_data/jsp/SearchPageENG.jsp): Negative | Gene mutation, Bacterial Reverse Mutation Assay (e.g. Ames Test) (in Vitro, Salmonella typhimurium, Strain TA 1535, OECD Guideline 471, Database Genotoxicity OASIS, ref Japan Existing Chemical Data Base): Negative | Gene mutation, Bacterial Reverse Mutation Assay (e.g. Ames Test) (in Vitro, Salmonella typhimurium, Strain TA 1537, Guidelines For Screening Mutagenicity Testing of Chemicals (Chemical Substances Control Law of Japan), Database Toxicity Japan MHLW, ref Japan Existing Chemical Data Base, http://dra4.nihs.go.jp/mhlw_data/jsp/SearchPageENG.jsp): Negative | Gene mutation, Bacterial Reverse Mutation Assay (e.g. Ames Test) (in Vitro, Salmonella typhimurium, Strain TA 1537, OECD Guideline 471, Database Genotoxicity OASIS, ref Japan Existing Chemical Data Base): Negative

CCC(C)=O [78-93-3]
Gene mutation, Bacterial Reverse Mutation Assay (e.g. Ames Test) [2]: Negative | Gene mutation, Bacterial Reverse Mutation Assay (e.g. Ames Test) [3]: Negative | Gene mutation, Bacterial Reverse Mutation Assay (e.g. Ames Test) [4]: Negative | Gene mutation, Bacterial Reverse Mutation Assay (e.g. Ames Test) [5]: Negative | Gene mutation, Bacterial Reverse Mutation Assay (e.g. Ames Test) (Salmonella typhimurium, Strain TA 104, in Vitro, Database: Bacterial mutagenicity ISSSTY, ref CCRIS database,Toxnet databases (Romualdo Benigni)): Negative | Gene mutation, Bacterial Reverse Mutation Assay (e.g. Ames Test) [6]: Negative | Gene mutation, Bacterial Reverse Mutation Assay (e.g. Ames Test) [7]: Negative | Gene mutation, Bacterial Reverse Mutation Assay (e.g. Ames Test) (Salmonella typhimurium, Strain TA 1538, in Vitro, Database: Bacterial mutagenicity ISSSTY, ref CCRIS database,Toxnet databases (Romualdo Benigni)): Negative | Gene mutation, Bacterial Reverse Mutation Assay (e.g. Ames Test) [8]: Negative | Gene mutation, Bacterial Reverse Mutation Assay (e.g. Ames Test) [9]: Negative | Gene mutation, Bacterial Reverse Mutation Assay (e.g. Ames Test) [10]: Negative | Gene mutation, Bacterial Reverse Mutation Assay (e.g. Ames Test) [11]: Negative | Gene mutation, Bacterial Reverse Mutation Assay (e.g. Ames Test) (in Vitro, Salmonella typhimurium, Strain TA 102, OECD Guideline 471, Database Genotoxicity OASIS, ref CCRIS database,Toxnet databases): Negative | Gene mutation, Bacterial Reverse Mutation Assay (e.g. Ames Test) [12]: Negative | Gene mutation, Bacterial Reverse Mutation Assay (e.g. Ames Test) [13]: Negative | Gene mutation, Bacterial Reverse Mutation Assay (e.g. Ames Test) [14]: Negative

CCCCOC(=O)c1ccccc1C(=O)OCCCC [84-74-2]
Gene mutation, Bacterial Reverse Mutation Assay (e.g. Ames Test) [3]: Negative | Gene mutation, Bacterial Reverse Mutation Assay (e.g. Ames Test) [6]: Negative | Gene mutation, Bacterial Reverse Mutation Assay (e.g. Ames Test) [7]: Negative | Chromosome aberration, in Vitro Mammalian Chromosome Aberration Test (in Vitro, Chinese hamster, Chinese Hamster Lung (CHL), Duration 6÷18 h, Database Genotoxicity OASIS, ref Sofuni, T., Ed. (1998). Data Book of Chromosomal Aberration Test In Vitro, Revised Edition): Negative | Chromosome aberration, in Vitro Mammalian Chromosome Aberration Test [1]: Negative | Gene mutation, Bacterial Reverse Mutation Assay (e.g. Ames Test) [9]: Negative | Gene mutation, Bacterial Reverse Mutation Assay (e.g. Ames Test) [15]: Negative | Gene mutation, Bacterial Reverse Mutation Assay (e.g. Ames Test) [10]: Negative | Gene mutation, Bacterial Reverse Mutation Assay (e.g. Ames Test) [11]: Negative | Gene mutation, Bacterial Reverse Mutation Assay (e.g. Ames Test) [16]: Negative | Gene mutation, Bacterial Reverse Mutation Assay (e.g. Ames Test) [12]: Negative | Gene mutation, Bacterial Reverse Mutation Assay (e.g. Ames Test) [17]: Negative | Gene mutation, Bacterial Reverse Mutation Assay (e.g. Ames Test) [13]: Negative | Gene mutation, Bacterial Reverse Mutation Assay (e.g. Ames Test) [14]: Negative

CC(=O)c1ccccc1 [98-86-2]
Gene mutation, Bacterial Reverse Mutation Assay (e.g. Ames Test) [2]: Negative | Gene mutation, Bacterial Reverse Mutation Assay (e.g. Ames Test) [3]: Negative | Gene mutation, Bacterial Reverse Mutation Assay (e.g. Ames Test) [4]: Negative | Gene mutation, Bacterial Reverse Mutation Assay (e.g. Ames Test) [5]: Negative | Gene mutation, Bacterial Reverse Mutation Assay (e.g. Ames Test) [6]: Negative | Gene mutation, Bacterial Reverse Mutation Assay (e.g. Ames Test) [7]: Negative | Gene mutation, Bacterial Reverse Mutation Assay (e.g. Ames Test) [8]: Negative | Gene mutation, Bacterial Reverse Mutation Assay (e.g. Ames Test) [18]: Negative | Gene mutation, Bacterial Reverse Mutation Assay (e.g. Ames Test) (in Vitro, Salmonella typhimurium, Strain TA 97, Database Genotoxicity OASIS, ref FUJITA H. AND SASAKI M., KENKYU NENPO - TOKYO-TORITSU EISEI KENKYUSHO 38:423-430, 1987): Negative | Gene mutation, Bacterial Reverse Mutation Assay (e.g. Ames Test) [15]: Negative | Gene mutation, Bacterial Reverse Mutation Assay (e.g. Ames Test) (in Vitro, Salmonella typhimurium, Strain TA 102, Database Genotoxicity OASIS, ref FUJITA H. AND SASAKI M., KENKYU NENPO - TOKYO-TORITSU EISEI KENKYUSHO 38:423-430, 1987): Negative

CCCCCCCCCc1ccc(O)cc1 [104-40-5]
Gene mutation, Bacterial Reverse Mutation Assay (e.g. Ames Test) [4]: Negative | Gene mutation, Bacterial Reverse Mutation Assay (e.g. Ames Test) [5]: Negative | Gene mutation, Bacterial Reverse Mutation Assay (e.g. Ames Test) [8]: Negative | Gene mutation, Bacterial Reverse Mutation Assay (e.g. Ames Test) [18]: Negative | Gene mutation, Bacterial Reverse Mutation Assay (e.g. Ames Test) [15]: Negative | Gene mutation, Bacterial Reverse Mutation Assay (e.g. Ames Test) (in Vitro, Salmonella typhimurium, Strain TA 100, Database Bacterial mutagenicity ISSSTY, ref CCRIS database,Toxnet databases, Romualdo Benigni, 02.5.2011): Negative | Gene mutation, Bacterial Reverse Mutation Assay (e.g. Ames Test) (in Vitro, Salmonella typhimurium, Strain TA 102, Database Bacterial mutagenicity ISSSTY, ref CCRIS database,Toxnet databases, Romualdo Benigni, 02.5.2011): Negative | Gene mutation, Bacterial Reverse Mutation Assay (e.g. Ames Test) (in Vitro, Salmonella typhimurium, Strain TA 104, Database Bacterial mutagenicity ISSSTY, ref CCRIS database,Toxnet databases, Romualdo Benigni, 02.5.2011): Negative | Gene mutation, Bacterial Reverse Mutation Assay (e.g. Ames Test) [16]: Negative | Gene mutation, Bacterial Reverse Mutation Assay (e.g. Ames Test) [17]: Negative | Gene mutation, Bacterial Reverse Mutation Assay (e.g. Ames Test) (in Vitro, Salmonella typhimurium, Strain TA 1538, Database Bacterial mutagenicity ISSSTY, ref CCRIS database,Toxnet databases, Romualdo Benigni, 02.5.2011): Negative
